Values of other authors in patent publication US6660286B1, “Emulsion vehicle for poorly soluble drugs” (Sonus Pharmaceuticals, Inc., priority 1997, dated 2003).
Read-outs that look alike come from different tables or passages of the source.

For CC(=O)O[C@H]1C(=O)[C@@]2(C)[C@H]([C@H](OC(=O)c3ccccc3)[C@]3(O)C[C@H](OC(=O)[C@H](O)[C@@H](NC(=O)c4ccccc4)c4ccccc4)C(C)=C1C3(C)C)[C@]1(OC(C)=O)CO[C@@H]1C[C@@H]2O [paclitaxel], the solubility of paclitaxel (30% PVP in water) is listed as at most 300 µg/mL, the solubility of paclitaxel (35% PEG 400 in water) is listed as 30 µg/mL and the solubility of paclitaxel (admixtures of PEG 400 and water containing 50-100% PEG 400) is listed as 200 to 175000 µg/mL.
